Reference: PubChem BioAssay (NCI)
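Following 48 hours of exposure in 96-well plates, responses at five concentrations were used to interpolate endpoints linearly. TGI denotes the concentration required for complete inhibition of growth.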

Key:
Experiment in all cases: NCI tumour cell line growth inhibition, 48 h
786-0 renal = system: 786-0 renal
A498 renal = system: A498 renal
A549 NSCLC = system: A549 NSCLC
ACHN renal = system: ACHN renal
BT-549 breast = system: BT-549 breast
CAKI-1 renal = system: CAKI-1 renal
CCRF-CEM leukemia = system: CCRF-CEM leukemia
COLO 205 colon = system: COLO 205 colon
EKVX NSCLC = system: EKVX NSCLC
HCC-2998 colon = system: HCC-2998 colon
HCT-116 colon = system: HCT-116 colon
HCT-15 colon = system: HCT-15 colon
HL-60(TB) leukemia = system: HL-60(TB) leukemia
HOP-62 NSCLC = system: HOP-62 NSCLC
HOP-92 NSCLC = system: HOP-92 NSCLC
HS 578T breast = system: HS 578T breast
HT29 colon = system: HT29 colon
IGROV1 ovarian = system: IGROV1 ovarian
K-562 leukemia = system: K-562 leukemia
KM12 colon = system: KM12 colon
LOX IMVI melanoma = system: LOX IMVI melanoma
M14 melanoma = system: M14 melanoma
MALME-3M melanoma = system: MALME-3M melanoma
MCF7 breast = system: MCF7 breast
MDA-MB-231 breast = system: MDA-MB-231 breast
MDA-MB-435 = system: MDA-MB-435
MDA-N = system: MDA-N
MOLT-4 leukemia = system: MOLT-4 leukemia
NCI-H226 lung = system: NCI-H226 lung
NCI-H23 lung = system: NCI-H23 lung
NCI-H460 lung = system: NCI-H460 lung
NCI-H522 lung = system: NCI-H522 lung
NCI/ADR-RES ovarian = system: NCI/ADR-RES ovarian
OVCAR-3 ovarian = system: OVCAR-3 ovarian
OVCAR-4 ovarian = system: OVCAR-4 ovarian
OVCAR-5 ovarian = system: OVCAR-5 ovarian
OVCAR-8 ovarian = system: OVCAR-8 ovarian
PC-3 prostate = system: PC-3 prostate
RPMI-8226 leukemia = system: RPMI-8226 leukemia
RXF 393 renal = system: RXF 393 renal
SF-268 CNS = system: SF-268 CNS
SF-295 CNS = system: SF-295 CNS
SF-539 CNS = system: SF-539 CNS
SK-MEL-2 melanoma = system: SK-MEL-2 melanoma
SK-MEL-28 melanoma = system: SK-MEL-28 melanoma
SK-MEL-5 melanoma = system: SK-MEL-5 melanoma
SK-OV-3 ovarian = system: SK-OV-3 ovarian
SN12C renal = system: SN12C renal
SNB-19 CNS = system: SNB-19 CNS
SNB-75 CNS = system: SNB-75 CNS
SR leukemia = system: SR leukemia
SW-620 colon = system: SW-620 colon
T-47D breast = system: T-47D breast
TK-10 renal = system: TK-10 renal
U251 CNS = system: U251 CNS
UACC-257 melanoma = system: UACC-257 melanoma
UACC-62 melanoma = system: UACC-62 melanoma
UO-31 renal = system: UO-31 renal
DU-145 prostate = system: DU-145 prostate

SMILES: Nc1nc(NCc2ccccc2)cc(NCc2ccccc2)n1
- TGI (786-0 renal): 22.5 µM
- TGI (A498 renal): 14.5 µM
- TGI (A549 NSCLC): 92 µM
- TGI (ACHN renal): 28.1 µM
- TGI (BT-549 breast): 23.5 µM
- TGI (CAKI-1 renal): 9.74 µM
- TGI (CCRF-CEM leukemia): > 100 µM
- TGI (COLO 205 colon): 27.3 µM
- TGI (EKVX NSCLC): 41 µM
- TGI (HCC-2998 colon): 24.6 µM
- TGI (HCT-116 colon): 21.2 µM
- TGI (HCT-15 colon): 18.3 µM
- TGI (HL-60(TB) leukemia): > 100 µM
- TGI (HOP-62 NSCLC): 41.7 µM
- TGI (HOP-92 NSCLC): 21.5 µM
- TGI (HS 578T breast): 13.4 µM
- TGI (HT29 colon): 11.9 µM
- TGI (IGROV1 ovarian): 23.9 µM
- TGI (K-562 leukemia): > 100 µM
- TGI (KM12 colon): 27.9 µM
- TGI (LOX IMVI melanoma): 45 µM
- TGI (M14 melanoma): 39.5 µM
- TGI (MALME-3M melanoma): 21.7 µM
- TGI (MCF7 breast): 6.36 µM
- TGI (MDA-MB-231 breast): 22.4 µM
- TGI (MDA-MB-435): 18.9 µM
- TGI (MDA-N): 5.97 µM
- TGI (MOLT-4 leukemia): > 100 µM
- TGI (NCI-H226 lung): 27.5 µM
- TGI (NCI-H23 lung): 20 µM
- TGI (NCI-H460 lung): 32.5 µM
- TGI (NCI-H522 lung): 19.2 µM
- TGI (NCI/ADR-RES ovarian): 15.3 µM
- TGI (OVCAR-3 ovarian): 20.2 µM
- TGI (OVCAR-4 ovarian): 28.3 µM
- TGI (OVCAR-5 ovarian): 50.4 µM
- TGI (OVCAR-8 ovarian): 17.3 µM
- TGI (PC-3 prostate): 16.8 µM
- TGI (RPMI-8226 leukemia): 24.6 µM
- TGI (RXF 393 renal): 26.6 µM
- TGI (SF-268 CNS): 19.3 µM
- TGI (SF-295 CNS): 69 µM
- TGI (SF-539 CNS): 18.3 µM
- TGI (SK-MEL-2 melanoma): 31.2 µM
- TGI (SK-MEL-28 melanoma): > 100 µM
- TGI (SK-MEL-5 melanoma): 19.7 µM
- TGI (SK-OV-3 ovarian): 33.7 µM
- TGI (SN12C renal): 32.4 µM
- TGI (SNB-19 CNS): 31 µM
- TGI (SNB-75 CNS): 13.1 µM
- TGI (SR leukemia): > 100 µM
- TGI (SW-620 colon): > 100 µM
- TGI (T-47D breast): 25.9 µM
- TGI (TK-10 renal): 22.3 µM
- TGI (U251 CNS): 71.2 µM
- TGI (UACC-257 melanoma): 21.6 µM
- TGI (UACC-62 melanoma): 16.5 µM
- TGI (UO-31 renal): 21 µM

SMILES: Cc1c(S(=O)(=O)/N=C(\NO)Nc2ccc(Cl)cc2)sc2ccc(Cl)cc12
- TGI (786-0 renal): 32.3 µM
- TGI (A549 NSCLC): 33.8 µM
- TGI (ACHN renal): 28.5 µM
- TGI (BT-549 breast): 31.7 µM
- TGI (CAKI-1 renal): 34.3 µM
- TGI (CCRF-CEM leukemia): > 100 µM
- TGI (COLO 205 colon): 30.9 µM
- TGI (DU-145 prostate): 53.7 µM
- TGI (EKVX NSCLC): 25.1 µM
- TGI (HCT-116 colon): 27.4 µM
- TGI (HCT-15 colon): 30.6 µM
- TGI (HL-60(TB) leukemia): 47.3 µM
- TGI (HOP-62 NSCLC): 36.7 µM
- TGI (HOP-92 NSCLC): 28.8 µM
- TGI (HS 578T breast): 44.3 µM
- TGI (HT29 colon): 34.3 µM
- TGI (IGROV1 ovarian): 27.5 µM
- TGI (K-562 leukemia): > 100 µM
- TGI (KM12 colon): 41.7 µM
- TGI (LOX IMVI melanoma): 32.2 µM
- TGI (M14 melanoma): 31.2 µM
- TGI (MALME-3M melanoma): 33.8 µM
- TGI (MDA-MB-231 breast): 42.7 µM
- TGI (MDA-MB-435): 33.7 µM
- TGI (MDA-N): 32.9 µM
- TGI (MOLT-4 leukemia): > 100 µM
- TGI (NCI-H226 lung): 38.1 µM
- TGI (NCI-H23 lung): 33.6 µM
- TGI (NCI-H460 lung): 76.8 µM
- TGI (NCI-H522 lung): 22.7 µM
- TGI (NCI/ADR-RES ovarian): 37.9 µM
- TGI (OVCAR-3 ovarian): 25.8 µM
- TGI (OVCAR-4 ovarian): 38.3 µM
- TGI (OVCAR-5 ovarian): 33.3 µM
- TGI (OVCAR-8 ovarian): 32.2 µM
- TGI (PC-3 prostate): 31.1 µM
- TGI (RXF 393 renal): 47.1 µM
- TGI (SF-268 CNS): 35.6 µM
- TGI (SF-295 CNS): 41 µM
- TGI (SF-539 CNS): 42.1 µM
- TGI (SK-MEL-2 melanoma): 34.4 µM
- TGI (SK-MEL-28 melanoma): 32.9 µM
- TGI (SK-MEL-5 melanoma): 27.4 µM
- TGI (SK-OV-3 ovarian): 31.2 µM
- TGI (SN12C renal): 35.5 µM
- TGI (SNB-19 CNS): 35.2 µM
- TGI (SNB-75 CNS): 41.9 µM
- TGI (SW-620 colon): 63.1 µM
- TGI (T-47D breast): 89.9 µM
- TGI (TK-10 renal): 35.5 µM
- TGI (U251 CNS): 31.5 µM
- TGI (UACC-257 melanoma): 33.3 µM
- TGI (UACC-62 melanoma): 29.8 µM
- TGI (UO-31 renal): 52.5 µM
